Experimental data from patent publication US20060069132A1, “Azolecarboxamide herbicides” (priority 2004, published 2006).
Where two headings read alike, the source gives them in different places.

Tests used:
[1] = system: giant foxtail; assay: Test C pre-/postemergence herbicide test; format: in vivo, Setaria faberi
Method in brief: (§1)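 Pre- and postemergence application, solvent/surfactant formulation; post at 1- to 4-leaf stage (2–18 cm). Greenhouse 12–14 d. Visual rating vs controls, 0 = no effect, 100 = complete control.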

[2] = system: bermudagrass; assay: Test C pre-/postemergence herbicide test; format: in vivo, Cynodon dactylon
Method in brief: as §1

[3] = system: common (oilseed) sunflower; assay: Test C pre-/postemergence herbicide test; format: in vivo, Helianthus annuus
Method in brief: as §1

[4] = system: barnyardgrass; assay: Test C flooded paddy test; format: in vivo, Echinochloa crus-galli; conditions: Echinochloa crus-galli
Method in brief: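 Weeds and wheat were sprayed after emergence, at a height of 2 to 18 cm (1–4 leaves), and paddy barnyardgrass was flooded and treated at two leaves. Assessment took place 12–14 days later in the greenhouse on a 0-to-100 visual control scale. A dash means no result was obtained.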

[5] = system: ducksalad; assay: Test C flooded paddy test; format: in vivo, Heteranthera limosa; conditions: Heteranthera limosa
[6] = system: soybean; assay: Test C pre-/postemergence herbicide test; format: in vivo, Glycine max
Method in brief: as §1

[7] = system: large crabgrass; assay: Test C pre-/postemergence herbicide test; format: in vivo, Digitaria sanguinalis
Method in brief: as §1

[8] = system: barnyardgrass; assay: Test A pre-/postemergence herbicide test; format: in vivo, Echinochloa crus-galli; conditions: Echinochloa crus-galli, 240 h; for pest or weed control at 500 g/ha: 500 g ai/ha; for pest or weed control at 2000 g/ha: 2000 g ai/ha
Method in brief: (§2)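 Visual injury rating on a 0–100 scale (0 no effect, 100 complete control) versus untreated controls, about ten days after treatment in greenhouse. Pre: directed soil spray onto seeded sandy loam. Post: spray to runoff on plants 2–10 cm tall at one- to two-leaf stage.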

[9] = system: giant foxtail; assay: Test A pre-/postemergence herbicide test; format: in vivo, Setaria faberi; conditions: Setaria faberi, 240 h; for pest or weed control at 500 g/ha: 500 g ai/ha; for pest or weed control at 2000 g/ha: 2000 g ai/ha
Method in brief: as §2

[10] = system: lambsquarters; assay: Test C pre-/postemergence herbicide test; format: in vivo, Chenopodium album
Method in brief: as §1

[11] = system: large crabgrass; assay: Test A pre-/postemergence herbicide test; format: in vivo, Digitaria sanguinalis; conditions: Digitaria sanguinalis, 240 h; for pest or weed control at 500 g/ha: 500 g ai/ha; for pest or weed control at 2000 g/ha: 2000 g ai/ha
Method in brief: as §2

[12] = system: kochia; assay: Test C pre-/postemergence herbicide test; format: in vivo, Kochia scoparia
Method in brief: as §1

[13] = system: rice; assay: Test C flooded paddy test; format: in vivo, Oryza sativa; conditions: Oryza sativa
Method in brief: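 Postemergence sprays applied to plants 2 to 18 cm tall (1- to 4-leaf stage); paddy species grown to 2-leaf stage under flooding. After 12 to 14 days in greenhouse, visual rating versus untreated controls on 0–100 scale (0 no effect, 100 complete control).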

[14] = Preemergence, 500 g ai/ha, scale 0 to 100, 0 no effect, 100 complete control
[15] = post-emergence, Postemergence, 0 to 100 scale, 0 no effect, 100 complete control, read-out: Plant response rating, Barnyardgrass
[16] = post-emergence, Postemergence, 0 to 100 scale, 0 no effect, 100 complete control, read-out: Plant response rating, Foxtail, Giant
[17] = post-emergence, Postemergence, 0 to 100 scale, 0 no effect, 100 complete control, read-out: Plant response rating, Crabgrass, Large

With CCn1nc(C(C)(C)C)cc1C(=O)Nc1cccc2c1CN(C)C2=O [Compound 55, N-(2,3-dihydro-2-methyl-1-oxo-1H-isoindol-4-yl)-3-(1,1-dimethylethyl)-1-ethyl-1H-pyrazole-5-carboxamide] the “Plant response rating (0 = no effect, 100 = complete control), Foxtail, Giant” value ([1]; 62 g ai/ha, preemergence) was 0, the “Foxtail, Giant plant response rating” value [1, 14] was 100 and the pest or weed control at 125 g/ha ([1]; Setaria faberi, pre-emergence, 312 h, 125 g ai/ha, scale 0 (no effect) to 100 (complete control), visual, 12 to 14 days, read-out: Plant response rating, Foxtail, Giant) was 50%. For the same compound, the pest or weed control at 250 g/ha ([1]; Setaria faberi, pre-emergence, 312 h, 250 g ai/ha, scale 0 to 100 (0 no effect, 100 complete control), visual, 12 to 14 days, read-out: Plant response rating, Foxtail, Giant) was 75%, the “Plant response rating (0 = no effect, 100 = complete control), Bermudagrass” value ([2]; 62 g ai/ha, preemergence) was 60 and the pest or weed control at 125 g/ha ([2]; Cynodon dactylon, pre-emergence, 312 h, 125 g ai/ha, scale 0 (no effect) to 100 (complete control), visual, 12 to 14 days, read-out: Plant response rating, Bermudagrass) was 100%. The pest or weed control at 250 g/ha ([2]; Cynodon dactylon, pre-emergence, 312 h, 250 g ai/ha, scale 0 to 100 (0 no effect, 100 complete control), visual, 12 to 14 days, read-out: Plant response rating, Bermudagrass) was 100%, the pest or weed control at 500 g/ha ([2]; Cynodon dactylon, pre-emergence, 312 h, Preemergence, 500 g ai/ha, scale 0 to 100, 0 no effect, 100 complete control, read-out: Bermudagrass plant response rating) was 100% and the “Plant response rating (0 = no effect, 100 = complete control), Sunflower” value ([3]; 62 g ai/ha, preemergence) was 0. The pest or weed control at 125 g/ha ([3]; Helianthus annuus, pre-emergence, 125 g ai/ha, scale 0 (no effect) to 100 (complete control), visual, 12 to 14 days, read-out: Plant response rating, Sunflower) was 0%, the pest or weed control at 250 g/ha ([3]; Helianthus annuus, pre-emergence, 250 g ai/ha, scale 0 to 100 (0 no effect, 100 complete control), visual, 12 to 14 days, read-out: Plant response rating, Sunflower) was 0% and the “Sunflower plant response rating” value [3, 14] was 0. It also gave a pest or weed control at 62 g/ha ([4]; 62 g ai/ha, scale 0 to 100 (0 no effect, 100 complete control), read-out: Barnyardgrass plant response rating) of 0%, a pest or weed control at 125 g/ha ([4]; 125 g ai/ha, scale of 0 to 100, 0 is no effect, 100 is complete control, read-out: Barnyardgrass plant response rating) of 0% and a pest or weed control at 250 g/ha ([4]; 250 g ai/ha, scale of 0 to 100, 0 is no effect, 100 is complete control, read-out: Barnyardgrass plant response rating) of 25%. For the same compound, the pest or weed control at 500 g/ha ([4]; 500 g ai/ha, visual rating after 12 to 14 days, scale 0 to 100 (0 no effect, 100 complete control), read-out: Plant response rating, Barnyardgrass) was 75%, the pest or weed control at 62 g/ha ([5]; 62 g ai/ha, scale 0 to 100 (0 no effect, 100 complete control), read-out: Ducksalad plant response rating) was 0% and the pest or weed control at 125 g/ha ([5]; 125 g ai/ha, scale of 0 to 100, 0 is no effect, 100 is complete control, read-out: Ducksalad plant response rating) was 0%. For the same compound, the pest or weed control at 250 g/ha ([5]; 250 g ai/ha, scale of 0 to 100, 0 is no effect, 100 is complete control, read-out: Ducksalad plant response rating) was 55%, the pest or weed control at 500 g/ha ([5]; 500 g ai/ha, visual rating after 12 to 14 days, scale 0 to 100 (0 no effect, 100 complete control), read-out: Plant response rating, Ducksalad) was 80% and the “Plant response rating (0 = no effect, 100 = complete control), Soybean” value ([6]; 62 g ai/ha, preemergence) was 0. For the same compound, the plant injury at 125 g/ha ([6]; Glycine max, pre-emergence, 125 g ai/ha, scale 0 (no effect) to 100 (complete control), visual, 12 to 14 days, read-out: Plant response rating, Soybean) was 0%, the plant injury at 250 g/ha ([6]; Glycine max, pre-emergence, 250 g ai/ha, scale 0 to 100 (0 no effect, 100 complete control), visual, 12 to 14 days, read-out: Plant response rating, Soybean) was 0% and the “Soybean plant response rating” value [6, 14] was 20. The “Plant response rating (0 = no effect, 100 = complete control), Crabgrass, Large” value ([7]; 62 g ai/ha, preemergence) was 15, the pest or weed control at 125 g/ha ([7]; Digitaria sanguinalis, pre-emergence, 312 h, 125 g ai/ha, scale 0 (no effect) to 100 (complete control), visual, 12 to 14 days, read-out: Plant response rating, Crabgrass, Large) was 90% and the pest or weed control at 250 g/ha ([7]; Digitaria sanguinalis, pre-emergence, 312 h, 250 g ai/ha, scale 0 to 100 (0 no effect, 100 complete control), visual, 12 to 14 days, read-out: Plant response rating, Crabgrass, Large) was 95%. The “Crabgrass, Large plant response rating” value [7, 14] was 100, the pest or weed control at 500 g/ha [8, 15] was 90% and the pest or weed control at 2000 g/ha [8, 15] was 100%. The pest or weed control at 500 g/ha ([8]; pre-emergence, Preemergence, visual rating, 0 to 100 scale (0 no effect, 100 complete control), read-out: Barnyardgrass plant response rating) was 80%, the pest or weed control at 2000 g/ha ([8]; pre-emergence, Preemergence, 0 to 100 scale, 0 no effect, 100 complete control, read-out: Barnyardgrass plant response rating) was 95% and the pest or weed control at 500 g/ha [9, 16] was 30%. It also gave a pest or weed control at 2000 g/ha [9, 16] of 80%, a pest or weed control at 500 g/ha ([9]; pre-emergence, Preemergence, visual rating, 0 to 100 scale (0 no effect, 100 complete control), read-out: Foxtail, Giant plant response rating) of 60% and a pest or weed control at 2000 g/ha ([9]; pre-emergence, Preemergence, 0 to 100 scale, 0 no effect, 100 complete control, read-out: Foxtail, Giant plant response rating) of 100%. For the same compound, the “Plant response rating (0 = no effect, 100 = complete control), Lambsquarters” value ([10]; 62 g ai/ha, preemergence) was 80, the pest or weed control at 125 g/ha ([10]; Chenopodium album, pre-emergence, 125 g ai/ha, scale 0 (no effect) to 100 (complete control), visual, 12 to 14 days, read-out: Plant response rating, Lambsquarters) was 95% and the pest or weed control at 250 g/ha ([10]; Chenopodium album, pre-emergence, 250 g ai/ha, scale 0 to 100 (0 no effect, 100 complete control), visual, 12 to 14 days, read-out: Plant response rating, Lambsquarters) was 100%. The “Lambsquarters plant response rating” value [10, 14] was 100, the pest or weed control at 500 g/ha [11, 17] was 25% and the pest or weed control at 2000 g/ha [11, 17] was 100%. For the same compound, the pest or weed control at 500 g/ha ([11]; pre-emergence, Preemergence, visual rating, 0 to 100 scale (0 no effect, 100 complete control), read-out: Crabgrass, Large plant response rating) was 75%, the pest or weed control at 2000 g/ha ([11]; pre-emergence, Preemergence, 0 to 100 scale, 0 no effect, 100 complete control, read-out: Crabgrass, Large plant response rating) was 100% and the “Plant response rating (0 = no effect, 100 = complete control), Kochia” value ([12]; 62 g ai/ha, preemergence) was 25. The pest or weed control at 125 g/ha ([12]; Bassia scoparia, pre-emergence, 125 g ai/ha, scale 0 (no effect) to 100 (complete control), visual, 12 to 14 days, read-out: Plant response rating, Kochia) was 80%, the pest or weed control at 250 g/ha ([12]; Bassia scoparia, pre-emergence, 250 g ai/ha, scale 0 to 100 (0 no effect, 100 complete control), visual, 12 to 14 days, read-out: Plant response rating, Kochia) was 100% and the “Kochia plant response rating” value [12, 14] was 100. For the same compound, the plant injury at 62 g/ha ([13]; 62 g ai/ha, scale 0 to 100 (0 no effect, 100 complete control), read-out: Rice plant response rating) was 0%, the plant injury at 125 g/ha ([13]; 125 g ai/ha, scale of 0 to 100, 0 is no effect, 100 is complete control, read-out: Rice plant response rating) was 0% and the plant injury at 250 g/ha ([13]; 250 g ai/ha, scale of 0 to 100, 0 is no effect, 100 is complete control, read-out: Rice plant response rating) was 15%. The plant injury at 500 g/ha ([13]; 500 g ai/ha, visual rating after 12 to 14 days, scale 0 to 100 (0 no effect, 100 complete control), read-out: Plant response rating, Rice) was 60%.
